Experimental data: patent US8389523B2, “Substituted quinoxaline and an agrochemical composition thereof” (Kumiai Chemical Industry Co., Ltd., priority 2007, dated 2013)

Tests used:
Format in all cases: in vivo
Design in all cases: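 grade 0 to 5 of growth suppression where 5 is 90% or more and 0 below 10%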
[1] = test system: Echinochloa oryzicola Vasing; assay: Herbicidal effects in paddy field soil treatment (Test Example 1); details: paddy field soil treatment; 1000 g of the active ingredient per hectare; wettable powder added dropwise on water surface; 21st day after treatment
Procedure: (§1) Test for Herbicidal Effects in Paddy Field Soil Treatment
(§2) A 100-cm^2 plastic pot was filled with paddy field soil. After puddling and leveling, seeds of Echinochloa oryzicola Vasing, Monochoria vaginalis (Burm. f.) Presl var. plantaginea (Roxb.) Solms-Laub., and Scirpus juncoides Roxb. var. ohwianus. T. Koyama were sowed, and the soil was waterlogged to a water depth of 3 cm. On the next day, a wettable powder formulation prepared according to Preparation Example 1 was diluted with water, and was added dropwise on the water surface. The amount of application was an amount equivalent to 1000 g of the active ingredient per hectare. Thereafter, the plants were grown in a greenhouse, and on the 21st day after the treatment, the herbicidal effects were investigated according to the criteria described in Table 138.

[2] = test system: Monochoria vaginalis (Burm. f.) Presl var. plantaginea (Roxb.) Solms-Laub.; assay: as above; details: paddy field soil treatment; 1000 g of the active ingredient per hectare; wettable powder added dropwise on water surface; 21st day after treatment
Procedure: as §1, §2

[3] = test system: Scirpus juncoides Roxb. var. ohwianus. T. Koyama; assay: as above; details: paddy field soil treatment; 1000 g of the active ingredient per hectare; wettable powder added dropwise on water surface; 21st day after treatment
Procedure: as §1, §2

[4] = test system: Abutilon theophrasti medicus; assay: Herbicidal effects in upland field soil treatment (Test Example 2); details: 1000 g active ingredient per hectare, 21st day after treatment, criteria of Table 138
Procedure: (§3) Test Example 2 Test on Herbicidal Effects in Upland Field Soil Treatment A 80-cm^2 plastic pot was filled with upland field soil. Seeds of Abutilon theophrasti medicus and Amaranthus viridis L. were sowed, and soil was covered. A wettable powder formulation prepared according to Preparation Example 1 was diluted with water, and was uniformly sprayed on the soil surface with a small sprayer, in an amount equivalent to 1000 liters per hectare, such that 1000 g of the active ingredient per hectare was applied. Thereafter, the plants were grown in a greenhouse, and on the 21st day after the treatment, the herbicidal effects were investigated according to the criteria described in the Table 138 shown above.

Amaranthus viridis L. = assay: as above; details: 1000 g active ingredient per hectare, 21st day after treatment, criteria of Table 138
Procedure: as §3

SMILES | Herbicidal effects index, Echinochloa oryzicola Vasing [1] | Herbicidal effects index, Monochoria vaginalis (Burm. f.) Presl var. plantaginea (Roxb.) Solms-Laub. [2] | Herbicidal effects index, Scirpus juncoides Roxb. var. ohwianus. T. Koyama [3] | herbicidal effect (index) on Abutilon theophrasti medicus [4] | herbicidal effect (index) on Amaranthus viridis L. (Amaranthus viridis L.)
COc1ccc(-n2c(=O)c(C(=O)C3=C(O)CCCC3=O)nc3c(F)cc(F)cc32)cc1 [II-259] | 4 | 5 | 5 | 5 | 5
COc1ccc(-n2c(=O)c(C(=O)C3=C(O)CCCC3=O)nc3ccccc32)cc1OC [II-169] | 5 | 5 | 5 | – | –
Cn1nc(C(F)(F)F)nc1-n1c(=O)c(C(=O)C2=C(O)CCCC2=O)nc2ccccc21 [I-165] | 5 | 5 | 5 | 5 | 5
O=C1CCCC(O)=C1C(=O)c1nc2cc(F)ccc2n(Cc2ccccc2)c1=O [I-280] | 5 | 5 | 5 | – | –
CC(C)(C)n1c(=O)c(C(=O)C2=C(O)CCCC2=O)nc2ccccc21 [I-18] | – | – | – | 5 | 5
COc1ccc(-n2c(=O)c(C(=O)C3=C(O)CCCC3=O)nc3c(F)c(F)ccc32)cc1 [II-258] | 4 | 5 | 5 | – | –
COc1ccc(-n2c(=O)c(C(=O)C3=C(O)CCCC3=O)nc3ccc(OC)cc32)cc1 [II-253] | 5 | 5 | 5 | – | –
CC(=O)c1ccc(-n2c(=O)c(C(=O)C3=C(O)CCCC3=O)nc3ccccc32)cc1 [II-140] | 5 | 5 | 4 | – | –
COc1ccc(-n2c(=O)c(C(=O)C3=C(O)CCCC3=O)nc3ccccc32)c(Cl)c1 [II-175] | 4 | 5 | 5 | – | –
COc1ccc(-n2c(=O)c(C(=O)C3=C(O)CCCC3=O)nc3c(Cl)cc(Cl)cc32)cc1 [II-262] | – | – | – | 4 | 5
O=C1CCCC(O)=C1C(=O)c1nc2ccccc2n(-c2ccc(OCC(F)(F)F)cc2)c1=O [II-209] | 5 | 5 | 5 | – | –
COc1ccc(-n2c(=O)c(C(=O)C3=C(O)CCCC3=O)nc3cc(F)ccc32)cc1 [II-187] | 5 | 5 | 5 | – | –
COc1ccc(-n2c(=O)c(C(=O)C3=C(O)CCCC3=O)nc3c(F)c(F)c(OC)c(F)c32)cc1 [II-302] | – | – | – | 4 | 5
COc1ccccc1Cn1c(=O)c(C(=O)C2=C(O)CCCC2=O)nc2ccccc21 [I-120] | 4 | 5 | 5 | – | –
COc1ccc(-n2c(=O)c(C(=O)C3=C(O)CCCC3=O)nc3ccccc32)c(OC)c1 [II-177] | 4 | 5 | 5 | – | –
COc1ccc(-n2c(=O)c(C(=O)C3=C(O)CCCC3=O)nc3cc(Cl)ccc32)cc1 [II-195] | 5 | 5 | 5 | – | –
COc1ccc2c(c1)nc(C(=O)C1=C(O)CCCC1=O)c(=O)n2-c1ccccc1 [II-250] | – | – | – | 5 | 5
CCNc1nc(NC(C)C)nc(-n2c(=O)c(C(=O)C3=C(O)CCCC3=O)nc3ccccc32)n1 [I-274] | 5 | 5 | 4 | – | –
COc1ccc(-n2c(=O)c(C(=O)C3=C(O)CCCC3=O)nc3cc(C)ccc32)cc1 [II-246] | 4 | 5 | 5 | – | –
CC(C(=O)OC(C)(C)C)n1c(=O)c(C(=O)C2=C(O)CCCC2=O)nc2cccnc21 (centres unmarked) [III-233] | – | – | – | 5 | 5
COC(=O)c1ccc(-n2c(=O)c(C(=O)C3=C(O)CCCC3=O)nc3ccccc32)cc1 [II-146] | – | – | – | 4 | 5
CS(=O)(=O)Cn1c(=O)c(C(=O)C2=C(O)CCCC2=O)nc2ccccc21 [I-80] | – | – | – | 5 | 5
O=C1CCCC(O)=C1C(=O)c1nc2ccccc2n(Cc2ccc(Cl)cc2)c1=O [I-113] | 5 | 5 | 5 | – | –
COc1cccc(Cn2c(=O)c(C(=O)C3=C(O)CCCC3=O)nc3ccccc32)c1 [I-125] | 4 | 5 | 5 | – | –
COc1ccc(-n2c(=O)c(C(=O)C3=C(O)CCCC3=O)nc3ccccc32)cc1Cl [II-179] | 4 | 5 | 5 | – | –
Cn1c(=S)c(C(=O)C2=C(O)CCCC2=O)nc2ccccc21 [I-256, 3-hydroxy-2-(1-methyl-2-thioxo-1,2-dihydroquinoxalin-3-yl-carbonyl)-2-cyclohexen-1-one] | – | – | – | 5 | 5
O=C1CCCC(O)=C1C(=O)c1nc2ccccc2n(C2CCSCC2)c1=O [I-166] | 4 | 5 | 5 | – | –
COc1ccc(Cn2c(=O)c(C(=O)C3=C(O)CCCC3=O)nc3ccccc32)cc1 [I-126] | 4 | 5 | 5 | – | –
COc1c(F)cc(-n2c(=O)c(C(=O)C3=C(O)CCCC3=O)nc3ccc(C)cc32)cc1F [II-248] | 5 | 5 | 5 | – | –
Cn1ccc2cc(-n3c(=O)c(C(=O)C4=C(O)CCCC4=O)nc4ccccc43)ccc21 [I-276] | 5 | 5 | 5 | – | –
